We go through 15 compounds from US9708318B2, “Bicyclic heterocycles as FGFR4 inhibitors” (Incyte Corporation, priority 2015, dated 2017).

Read-outs that look alike come from different tables or passages of the source. A value given as a limit tells only on which side of the number the result lay.

The term IC50 denotes the concentration that gives 50% inhibition.

One assay concerns the target FGFR2 (Homo sapiens (Human), UniProt P21802). Briefly: FGFR Enzymatic Assay (FRET peptide phosphorylation), FGFR2. In kind it is biochemical. The following applies: pre-incubated for 4 hours. The method, then: (§1) The inhibitor potency of the exemplified compounds was measured in an enzyme assay that measures peptide phosphorylation using FRET measurements to detect product formation. Inhibitors were serially diluted in DMSO and a volume of 0.5 μL was transferred to the wells of a 384-well plate.
(§2) The enzymes were purchased from Millipore or Invitrogen.
(§3) GraphPad prism3 was used to analyze the data.

The next assay has as its target FGFR3 enzyme (Homo sapiens (Human), UniProt P22607). Briefly: FGFR Enzymatic Assay (FRET peptide phosphorylation), FGFR3. In kind it is biochemical. Particulars: pre-incubated for 4 hours; for FGFR1/FGFR3 IC50 ratio / FGFR4/FGFR3 IC50 ratio: FGFR3 selectivity; for IC50: read-out: FGFR3 IC50. The method, then: as §1, §3
A further assay has as its target FGFR4 (Homo sapiens (Human), UniProt P22455). Briefly: FGFR Enzymatic Assay (FRET peptide phosphorylation), FGFR4. In kind it is biochemical. Particulars: pre-incubated for 4 hours. How it is done:
as §1, §2, §3

The next assay addresses FGFR1 (Homo sapiens (Human), UniProt P11362). Briefly: FGFR Enzymatic Assay (FRET peptide phosphorylation), FGFR1. The following applies: pre-incubated for 4 hours.

FGFR2, sequence (P21802 22-821): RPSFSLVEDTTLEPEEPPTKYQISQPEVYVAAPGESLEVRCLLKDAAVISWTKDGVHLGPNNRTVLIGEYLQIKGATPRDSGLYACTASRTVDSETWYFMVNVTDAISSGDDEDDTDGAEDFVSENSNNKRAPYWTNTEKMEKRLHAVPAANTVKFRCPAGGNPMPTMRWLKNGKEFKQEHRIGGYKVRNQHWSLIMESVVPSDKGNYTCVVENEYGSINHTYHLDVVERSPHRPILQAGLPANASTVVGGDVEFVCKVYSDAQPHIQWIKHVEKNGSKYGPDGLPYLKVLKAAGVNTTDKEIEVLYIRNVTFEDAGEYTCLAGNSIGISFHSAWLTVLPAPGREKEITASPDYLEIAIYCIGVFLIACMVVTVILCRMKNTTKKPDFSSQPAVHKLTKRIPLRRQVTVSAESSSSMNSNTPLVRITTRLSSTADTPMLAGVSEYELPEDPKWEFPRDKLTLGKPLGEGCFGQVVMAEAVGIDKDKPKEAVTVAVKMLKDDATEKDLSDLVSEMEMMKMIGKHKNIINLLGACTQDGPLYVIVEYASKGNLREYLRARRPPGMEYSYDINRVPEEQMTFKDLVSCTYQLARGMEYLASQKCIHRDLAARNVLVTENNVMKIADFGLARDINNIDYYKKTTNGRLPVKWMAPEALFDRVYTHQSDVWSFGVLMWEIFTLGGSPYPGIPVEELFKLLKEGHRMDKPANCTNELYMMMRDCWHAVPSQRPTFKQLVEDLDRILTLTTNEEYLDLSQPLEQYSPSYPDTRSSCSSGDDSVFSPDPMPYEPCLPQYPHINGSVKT
FGFR3 enzyme, sequence (P22607 23-806): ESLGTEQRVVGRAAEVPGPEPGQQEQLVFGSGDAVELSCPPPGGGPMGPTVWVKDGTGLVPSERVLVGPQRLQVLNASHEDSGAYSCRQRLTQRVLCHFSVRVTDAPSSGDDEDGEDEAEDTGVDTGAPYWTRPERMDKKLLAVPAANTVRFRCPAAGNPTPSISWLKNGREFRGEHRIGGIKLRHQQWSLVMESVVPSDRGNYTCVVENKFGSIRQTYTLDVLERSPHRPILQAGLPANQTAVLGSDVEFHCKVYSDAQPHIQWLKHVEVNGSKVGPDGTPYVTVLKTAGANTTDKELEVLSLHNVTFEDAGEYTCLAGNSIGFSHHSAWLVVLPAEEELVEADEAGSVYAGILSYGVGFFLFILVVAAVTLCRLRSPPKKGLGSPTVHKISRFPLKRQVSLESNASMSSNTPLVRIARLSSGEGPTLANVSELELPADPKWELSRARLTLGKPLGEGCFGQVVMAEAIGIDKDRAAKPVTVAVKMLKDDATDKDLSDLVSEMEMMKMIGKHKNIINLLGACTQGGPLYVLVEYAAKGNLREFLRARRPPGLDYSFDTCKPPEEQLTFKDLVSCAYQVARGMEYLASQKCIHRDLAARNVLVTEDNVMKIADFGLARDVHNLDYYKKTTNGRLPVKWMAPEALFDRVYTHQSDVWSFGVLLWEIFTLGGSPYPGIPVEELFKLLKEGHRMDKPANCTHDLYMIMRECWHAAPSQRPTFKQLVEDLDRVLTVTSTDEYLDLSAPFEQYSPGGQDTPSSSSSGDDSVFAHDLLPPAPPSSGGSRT
FGFR1, sequence (P11362 22-822): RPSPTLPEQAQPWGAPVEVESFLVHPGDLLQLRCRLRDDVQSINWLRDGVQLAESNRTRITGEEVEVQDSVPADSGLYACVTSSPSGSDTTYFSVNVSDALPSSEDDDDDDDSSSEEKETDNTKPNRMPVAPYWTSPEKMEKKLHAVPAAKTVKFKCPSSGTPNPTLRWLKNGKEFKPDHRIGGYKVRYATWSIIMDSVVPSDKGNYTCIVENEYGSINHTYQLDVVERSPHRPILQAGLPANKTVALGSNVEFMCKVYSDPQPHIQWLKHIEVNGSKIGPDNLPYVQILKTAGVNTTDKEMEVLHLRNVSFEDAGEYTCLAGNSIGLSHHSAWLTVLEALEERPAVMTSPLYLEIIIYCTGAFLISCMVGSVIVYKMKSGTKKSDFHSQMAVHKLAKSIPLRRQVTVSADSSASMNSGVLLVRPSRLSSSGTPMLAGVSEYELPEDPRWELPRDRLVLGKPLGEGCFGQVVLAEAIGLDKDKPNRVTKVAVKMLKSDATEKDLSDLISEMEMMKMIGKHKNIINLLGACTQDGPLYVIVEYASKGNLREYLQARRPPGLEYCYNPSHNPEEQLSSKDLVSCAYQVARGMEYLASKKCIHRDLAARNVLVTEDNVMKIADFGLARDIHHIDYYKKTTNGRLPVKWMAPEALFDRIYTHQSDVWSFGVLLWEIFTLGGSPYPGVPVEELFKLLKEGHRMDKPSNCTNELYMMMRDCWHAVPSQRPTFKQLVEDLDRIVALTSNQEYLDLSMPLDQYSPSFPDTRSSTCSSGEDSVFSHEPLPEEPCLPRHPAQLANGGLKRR
FGFR4, sequence (P22455 22-802): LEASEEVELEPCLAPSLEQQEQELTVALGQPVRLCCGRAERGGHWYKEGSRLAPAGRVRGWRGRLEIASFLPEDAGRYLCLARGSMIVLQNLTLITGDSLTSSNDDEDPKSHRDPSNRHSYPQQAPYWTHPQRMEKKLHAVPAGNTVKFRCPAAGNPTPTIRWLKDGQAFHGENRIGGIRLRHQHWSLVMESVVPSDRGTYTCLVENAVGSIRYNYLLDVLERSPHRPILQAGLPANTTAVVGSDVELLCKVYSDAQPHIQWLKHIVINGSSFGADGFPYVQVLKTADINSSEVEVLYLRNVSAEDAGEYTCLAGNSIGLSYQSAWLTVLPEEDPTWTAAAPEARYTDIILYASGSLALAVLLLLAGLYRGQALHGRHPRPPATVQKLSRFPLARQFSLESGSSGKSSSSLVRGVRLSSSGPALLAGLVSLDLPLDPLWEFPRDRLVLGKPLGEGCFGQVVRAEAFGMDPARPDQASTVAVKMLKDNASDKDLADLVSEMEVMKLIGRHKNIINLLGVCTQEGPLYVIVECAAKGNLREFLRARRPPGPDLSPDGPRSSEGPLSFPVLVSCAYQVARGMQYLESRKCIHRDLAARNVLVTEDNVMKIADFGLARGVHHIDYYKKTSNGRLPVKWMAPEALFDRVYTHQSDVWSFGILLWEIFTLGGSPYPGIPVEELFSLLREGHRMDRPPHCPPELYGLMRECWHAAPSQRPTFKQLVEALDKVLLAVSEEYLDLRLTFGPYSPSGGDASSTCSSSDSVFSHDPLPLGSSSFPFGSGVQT

Regarding `COc1cc(OC)c(F)c(N2Cc3cnc(-c4cn(C5CCN(CC#N)C5)nc4C)cc3C3(CC3)C2=O)c1F` (stereo not shown) [Example 154, 2-(3-(4-(2′-(2,6-difluoro-3,5-dimethoxyphenyl)-3′-oxo-2′,3′-dihydro-1′H-spiro[cyclopropane-1,4′-[2,7]naphthyridine]-6′-yl)-3-methyl-1H-pyrazol-1-yl)pyrrolidin-1-yl)acetonitrile], the concentration for half-maximal inhibition (IC50) against FGFR2 was in the range of 10 to 30 nM; on FGFR3 enzyme, 10 to 30 nM; against FGFR4, 30 to 200 nM; against FGFR1 (FGFR1 IC50 (nM)) it was 30 to 200 nM. For the same compound, at FGFR3 enzyme, the “FGFR1/FGFR3 IC50 ratio” value was over 5. The “FGFR4/FGFR3 IC50 ratio” value on FGFR3 enzyme was over 3.

With `COc1cc(OC)c(F)c(N2Cc3cnc(-c4cn(Cc5cccnc5)nc4C)cc3C3(CC3)C2=O)c1F` [Example 155, 2′-(2,6-difluoro-3,5-dimethoxyphenyl)-6′-(3-methyl-1-(pyridin-3-ylmethyl)-1H-pyrazol-4-yl)-1′H-spiro[cyclopropane-1,4′-[2,7]naphthyridin]-3′(2′H)-one], the IC50 at FGFR2 fell in the range of 30 to 200 nM; at FGFR3 enzyme it was 10 to 30 nM; against FGFR4, 30 to 200 nM; at FGFR1 (FGFR1 IC50 (nM)) it was 30 to 200 nM. Also, at FGFR3 enzyme, the “FGFR1/FGFR3 IC50 ratio” value was over 5. Further, the “FGFR4/FGFR3 IC50 ratio” value at FGFR3 enzyme is over 1.

For `COc1cc(OC)c(F)c(N2Cc3cnc(-c4cn(CCC#N)nc4C)cc3C3(CC3)C2=O)c1F` [Example 156, 3-(4-(2′-(2,6-difluoro-3,5-dimethoxyphenyl)-3′-oxo-2′,3′-dihydro-1′H-spiro[cyclopropane-1,4,-[2,7]naphthyridine]-6′-yl)-3-methyl-1H-pyrazol-1-yl)propanenitrile], the IC50 against FGFR2 was 10 to 30 nM; on FGFR3 enzyme, under 10 nM; against FGFR4, 10 to 30 nM; on FGFR1 (FGFR1 IC50 (nM)), 30 to 200 nM. The “FGFR1/FGFR3 IC50 ratio” value on FGFR3 enzyme is reported as over 5. Further, on FGFR3 enzyme, the “FGFR4/FGFR3 IC50 ratio” value is listed as over 1.

`COc1cc(OC)c(F)c(N2Cc3cnc(-c4cnn(CCN5CCOCC5)c4)cc3C3(CC3)C2=O)c1F` [Example 157, 2′-(2,6-difluoro-3,5-dimethoxyphenyl)-6′-(1-(2-morpholinoethyl)-1H-pyrazol-4-yl)-1′H-spiro[cyclopropane-1,4′-[2,7]naphthyridin]-3′(2′H)-one]: the IC50 on FGFR2 was under 10 nM; at FGFR3 enzyme it was under 10 nM; on FGFR4 it was under 10 nM; on FGFR1 (FGFR1 IC50 (nM)), 10 to 30 nM. For the same compound, the “FGFR1/FGFR3 IC50 ratio” value on FGFR3 enzyme was over 5. Also, at FGFR3 enzyme, the “FGFR4/FGFR3 IC50 ratio” value is recorded as over 3.

Take `CCn1cc(-c2cc3c(cn2)CN(c2c(F)c(OC)cc(OC)c2F)C(=O)C32CC2)c(C)n1` [Example 158, 2′-(2,6-difluoro-3,5-dimethoxyphenyl)-6′-(1-ethyl-3-methyl-1H-pyrazol-4-yl)-1′H-spiro[cyclopropane-1,4′-[2,7]naphthyridin]-3′(2′H)-one]: the IC50 is under 10 nM against FGFR2, under 10 nM on FGFR3 enzyme, 10 to 30 nM on FGFR4 and 30 to 200 nM against FGFR1 (FGFR1 IC50 (nM)). In addition, the “FGFR1/FGFR3 IC50 ratio” value at FGFR3 enzyme is recorded as over 5. Besides, on FGFR3 enzyme, the “FGFR4/FGFR3 IC50 ratio” value was over 3.

Consider `COc1cc(OC)c(F)c(N2Cc3cnc(-c4cn(CC(=O)N5CCOCC5)nc4C)cc3C3(CC3)C2=O)c1F` [Example 159, 2′-(2,6-difluoro-3,5-dimethoxyphenyl)-6′-(3-methyl-1-(2-morpholino-2-oxoethyl)-1H-pyrazol-4-yl)-1′H-spiro[cyclopropane-1,4′-[2,7]naphthyridin]-3′(2′H)-one], for which the IC50 on FGFR2 was in the range of 10 to 30 nM; at FGFR3 enzyme it was 10 to 30 nM; at FGFR4, 30 to 200 nM; against FGFR1 (FGFR1 IC50 (nM)), 30 to 200 nM. In addition, the “FGFR1/FGFR3 IC50 ratio” value on FGFR3 enzyme is recorded as over 5. Besides, the “FGFR4/FGFR3 IC50 ratio” value at FGFR3 enzyme is listed as over 3.

In the case of `COc1cc(OC)c(F)c(N2Cc3cnc(-c4csc(N(C)C)n4)cc3C3(CC3)C2=O)c1F` [Example 160, 2′-(2,6-difluoro-3,5-dimethoxyphenyl)-6′-(2-(dimethylamino)thiazol-4-yl)-1′H-spiro[cyclopropane-1,4′-[2,7]naphthyridin]-3′(2′H)-one], the IC50 on FGFR2 is under 10 nM; at FGFR3 enzyme, under 10 nM; against FGFR4 it was 10 to 30 nM; against FGFR1 (FGFR1 IC50 (nM)), 10 to 30 nM. On FGFR3 enzyme, the “FGFR1/FGFR3 IC50 ratio” value was over 5. Also, the “FGFR4/FGFR3 IC50 ratio” value on FGFR3 enzyme was over 5.

For the compound `COc1cc(OC)c(F)c(N2Cc3cnc(-c4cnn(CCN5CCC(OC)C5)c4)cc3C3(CC3)C2=O)c1F` (stereo not shown) [Example 161, 2′-(2,6-difluoro-3,5-dimethoxyphenyl)-6′-(1-(2-(3-methoxypyrrolidin-1-yl)ethyl)-1H-pyrazol-4-yl)-1′H-spiro[cyclopropane-1,4′-[2,7]naphthyridin]-3′(2′H)-one], the IC50 against FGFR2 is under 10 nM; on FGFR3 enzyme, under 10 nM; against FGFR4 it was 10 to 30 nM; against FGFR1 (FGFR1 IC50 (nM)), 10 to 30 nM. The “FGFR1/FGFR3 IC50 ratio” value on FGFR3 enzyme is over 5. In addition, the “FGFR4/FGFR3 IC50 ratio” value on FGFR3 enzyme is recorded as over 3.

As to `COc1cc(OC)c(F)c(N2Cc3cnc(-c4cnn(CC5CCCS(=O)(=O)N5)c4)cc3C3(CC3)C2=O)c1F` (stereo not shown) [Example 162, 2′-(2,6-difluoro-3,5-dimethoxyphenyl)-6′-{1-[(1,1-dioxido-1,2-thiazinan-3-yl)methyl]-1H-pyrazol-4-yl}-1′H-spiro[cyclopropane-1,4′-[2,7]naphthyridin]-3′(2′H)-one], the IC50 on FGFR2 was under 10 nM; on FGFR3 enzyme it was under 10 nM; against FGFR4, under 10 nM; on FGFR1 (FGFR1 IC50 (nM)), 10 to 30 nM. Moreover, the “FGFR1/FGFR3 IC50 ratio” value at FGFR3 enzyme is recorded as over 5. Moreover, the “FGFR4/FGFR3 IC50 ratio” value at FGFR3 enzyme was over 1.

Turning to `COc1cc(OC)c(F)c(N2Cc3cnc(-c4cn(C5CCN(C)C5)nc4C)cc3C3(CC3)C2=O)c1F` (stereo not shown) [Example 163, 2′-(2,6-difluoro-3,5-dimethoxyphenyl)-6′-(3-methyl-1-(1-methylpyrrolidin-3-yl)-1H-pyrazol-4-yl)-1′H-spiro[cyclopropane-1,4′-[2,7]naphthyridin]-3′(2′H)-one], the IC50 was under 10 nM against FGFR2, under 10 nM on FGFR3 enzyme, 30 to 200 nM on FGFR4 and 30 to 200 nM against FGFR1 (FGFR1 IC50 (nM)). At FGFR3 enzyme, the “FGFR1/FGFR3 IC50 ratio” value is given as over 3. In addition, the “FGFR4/FGFR3 IC50 ratio” value on FGFR3 enzyme is over 3.

On to `COc1cc(OC)c(F)c(N2Cc3cnc(-c4cn(CCN(C)C)nc4C)cc3C3(CC3)C2=O)c1F` [Example 164, 2′-(2,6-difluoro-3,5-dimethoxyphenyl)-6′-(1-(2-(dimethylamino)ethyl)-3-methyl-1H-pyrazol-4-yl)-1′H-spiro[cyclopropane-1,4′-[2,7]naphthyridin]-3′(2′H)-one], for which the concentration for half-maximal inhibition (IC50) lay in the range of 10 to 30 nM at FGFR2, 10 to 30 nM on FGFR3 enzyme, 30 to 200 nM against FGFR4 and 30 to 200 nM against FGFR1 (FGFR1 IC50 (nM)). Further, on FGFR3 enzyme, the “FGFR1/FGFR3 IC50 ratio” value is over 3. Moreover, on FGFR3 enzyme, the “FGFR4/FGFR3 IC50 ratio” value is over 3.

Take `COc1cc(OC)c(F)c(N2Cc3cnc(-c4cn(CCC5CCNCC5)nc4C)cc3C3(CC3)C2=O)c1F` [Example 165, 2′-(2,6-difluoro-3,5-dimethoxyphenyl)-6′-(3-methyl-1-(2-(piperidin-4-yl)ethyl)-1H-pyrazol-4-yl)-1′H-spiro[cyclopropane-1,4′-[2,7]naphthyridin]-3′(2′H)-one]: the IC50 at FGFR2 was under 10 nM; at FGFR3 enzyme, under 10 nM; on FGFR4, 10 to 30 nM; against FGFR1 (FGFR1 IC50 (nM)) it was 10 to 30 nM. At FGFR3 enzyme, the “FGFR1/FGFR3 IC50 ratio” value is recorded as over 3. The “FGFR4/FGFR3 IC50 ratio” value on FGFR3 enzyme is on record as over 3.

`COc1cc(OC)c(F)c(N2Cc3cnc(-c4cnn(CC5CN(S(C)(=O)=O)C5)c4)cc3C3(CC3)C2=O)c1F` [Example 166, 2′-(2,6-difluoro-3,5-dimethoxyphenyl)-6′-(1-((1-(methylsulfonyl)azetidin-3-yl)methyl)-1H-pyrazol-4-yl)-1′H-spiro[cyclopropane-1,4′-[2,7]naphthyridin]-3′(2′H)-one]: the IC50 against FGFR2 is under 10 nM; at FGFR3 enzyme, under 10 nM; against FGFR4 it was 10 to 30 nM; on FGFR1 (FGFR1 IC50 (nM)), 10 to 30 nM. In addition, the “FGFR1/FGFR3 IC50 ratio” value on FGFR3 enzyme is over 3. For the same compound, the “FGFR4/FGFR3 IC50 ratio” value at FGFR3 enzyme is over 3.

For the compound `COc1cc(OC)c(F)c(N2Cc3cnc(-c4cnn(CC5CN(C(C)=O)C5)c4)cc3C3(CC3)C2=O)c1F` [Example 167, 6′-(1-((1-acetylazetidin-3-yl)methyl)-1H-pyrazol-4-yl)-2′-(2,6-difluoro-3,5-dimethoxyphenyl)-1′H-spiro[cyclopropane-1,4′-[2,7]naphthyridin]-3′(2′H)-one], the IC50 is under 10 nM against FGFR2, under 10 nM on FGFR3 enzyme, 10 to 30 nM at FGFR4 and under 10 nM on FGFR1 (read-out: FGFR1 IC50). For the same compound, at FGFR3 enzyme, the “FGFR1/FGFR3 IC50 ratio” value is reported as over 3. At FGFR3 enzyme, the “FGFR4/FGFR3 IC50 ratio” value is recorded as over 3.

Consider `COc1cc(OC)c(F)c(N2Cc3cnc(-c4[nH]ncc4C#N)cc3C3(CC3)C2=O)c1F` [Example 171, 5-(2′-(2,6-difluoro-3,5-dimethoxyphenyl)-3′-oxo-2′,3′-dihydro-1′H-spiro[cyclopropane-1,4′-[2,7]naphthyridine]-6′-yl)-1H-pyrazole-4-carbonitrile], for which the IC50 at FGFR2 is 30 to 200 nM; at FGFR3 enzyme it was 30 to 200 nM; against FGFR4, under 10 nM; against FGFR1 (FGFR1 IC50 (nM)), 30 to 200 nM. In addition, the “FGFR1/FGFR4 IC50 ratio” value on FGFR4 (FGFR4 selectivity) is over 10. At FGFR4 (FGFR4 selectivity), the “FGFR2/FGFR4 IC50 ratio” value is over 10. Further, the “FGFR3/FGFR4 IC50 ratio” value on FGFR4 (FGFR4 selectivity) is on record as over 10.
